Laboratory results from patent publication US10307426B2, “Therapeutic compounds and compositions, and methods of use thereof” (Genentech, Inc., priority 2018, dated 2019).
Like-named read-outs stand apart in the source and are kept apart here.

Tests used:
[1] = biological target: isolated recombinant JAK1 kinase domain (Homo sapiens (Human), UniProt P23458); experiment: JAK1 enzyme assay (Caliper LabChip, peptide phosphorylation, Ki); assay type: biochemical; details: 1.5 nM JAK1, ATP 25 μM, Morrison tight binding model
Experimental: (§1) The activity of the isolated recombinant JAK1 and JAK2 kinase domain was measured by monitoring phosphorylation of a peptide derived from JAK3 (Val-Ala-Leu-Val-Asp-Gly-Tyr-Phe-Arg-Leu-Thr-Thr, fluorescently labeled on the N-terminus with 5-carboxyfluorescein) using the Caliper LabChip® technology (Caliper Life Sciences, Hopkinton, Mass.). […] Reactions were incubated at 22° C. in 384-well polypropylene microtiter plates for 30 minutes and then stopped by addition of 25 μL of an EDTA containing solution (100 mM HEPES buffer (pH 7.2), 0.015% Brij-35, 150 mM EDTA), resulting in a final EDTA concentration of 50 mM. After termination of the kinase reaction, the proportion of phosphorylated product was determined as a fraction of total peptide substrate using the Caliper LabChip® 3000 according to the manufacturer's specifications. Ki values were then determined using the Morrison tight binding model (Morrison, J. F., Biochim. Biophys. Acta. 185:269-296 (1969); William, J. W. and Morrison, J. F., Meth. Enzymol., 63:437-467 (1979)) modified for ATP-competitive inhibition [Ki=Ki,app/(1+[ATP]/Km,app)].

[2] = biological target: isolated recombinant JAK2 kinase domain (Homo sapiens (Human), UniProt O60674); experiment: JAK2 enzyme assay (Caliper LabChip, peptide phosphorylation, Ki); assay type: biochemical; details: 0.2 nM JAK2, ATP 25 μM, Morrison tight binding model
Experimental: as §1

[3] = system: JAK1-dependent STAT6 phosphorylation downstream of IL-13 stimulation in BEAS-2B human bronchial epithelial cells; experiment: JAK1 pathway assay in cell lines: IL-13 stimulated STAT6 phosphorylation in BEAS-2B cells (MSD); assay type: cell-based; details: 1 hr compound incubation, IL-13 stimulation 15 min, read-out: IL-13 p-STAT6 BEAS-2B IC50
Experimental: Inhibitor potency (EC50) was determined in cell-based assays designed to measure JAK1 dependent STAT phosphorylation. As noted above, inhibition of IL-4, IL-13, and IL-9 signaling by blocking the Jak/Stat signaling pathway can alleviate asthmatic symptoms in pre-clinical lung inflammation models (Mathew et al., 2001, J Exp Med 193(9): 1087-1096; Kudlacz et. al., 2008, Eur J. Pharmacol 582(1-3): 154-161).
In one assay approach, TF-1 human erythroleukemia cells obtained from the American Type Culture Collection (ATCC; Manassas, Va.) were used to measure JAK1-dependent STAT6 phosphorylation downstream of IL-13 stimulation. Prior to use in the assays, TF-1 cells were starved of GM-CSF overnight in OptiMEM medium (Life Technologies, Grand Island, N.Y.) supplemented with 0.5% charcoal/dextran stripped fetal bovine serum (FBS), 0.1 mM non-essential amino acids (NEAA), and 1 mM sodium pyruvate. The assays were run in 384-well plates in serum-free OptiMEM medium using 300,000 cells per well. In a second assay approach, BEAS-2B human bronchial epithelial cells obtained from ATCC were plated at 100,000 cells per well of a 96-well plate one day prior to the experiment. The BEAS-2B assay was run in complete growth medium (bronchial epithelial basal medium plus bulletkit; Lonza; Basel, Switzerland).
Test compounds were serially diluted 1:2 in DMSO and then diluted 1:50 in medium just before use. Diluted compounds were added to the cells, for a final DMSO concentration of 0.2%, and incubated for 30 min (for the TF-1 assay) or 1 hr (for the BEAS-2B assay) at 37° C. Then, cells were stimulated with human recombinant cytokine at their respective EC90 concentrations, as previously determined for each individual lot. Cells were stimulated with IL-13 (R&D Systems, Minneapolis, Minn.) for 15 min at 37° C. The TF-1 cell reactions were stopped by the direct addition of 10× lysis buffer (Cell Signaling Technologies, Danvers, Mass.), whereas the BEAS-2B cell incubations were halted by the removal of medium and addition of 1× lysis buffer. The resultant samples were frozen in the plates at −80° C. Compound mediated inhibition of STAT6 phosphorylation was measured in the cell lysates using MesoScale Discovery (MSD) technology (Gaithersburg, Md.). EC50 values were determined as the concentration of compound required for 50% inhibition of STAT phosphorylation relative to that measured for the DMSO control.

isolated recombinant JAK1 kinase domain, sequence (P23458 875-1153): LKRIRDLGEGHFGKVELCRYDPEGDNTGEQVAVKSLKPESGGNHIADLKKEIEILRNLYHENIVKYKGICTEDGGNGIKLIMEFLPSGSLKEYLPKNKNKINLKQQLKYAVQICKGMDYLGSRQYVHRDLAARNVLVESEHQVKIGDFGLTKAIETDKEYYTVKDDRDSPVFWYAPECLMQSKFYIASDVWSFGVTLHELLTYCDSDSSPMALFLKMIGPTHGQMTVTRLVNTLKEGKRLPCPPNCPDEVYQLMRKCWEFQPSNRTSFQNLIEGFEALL
isolated recombinant JAK2 kinase domain, sequence (O60674 849-1124): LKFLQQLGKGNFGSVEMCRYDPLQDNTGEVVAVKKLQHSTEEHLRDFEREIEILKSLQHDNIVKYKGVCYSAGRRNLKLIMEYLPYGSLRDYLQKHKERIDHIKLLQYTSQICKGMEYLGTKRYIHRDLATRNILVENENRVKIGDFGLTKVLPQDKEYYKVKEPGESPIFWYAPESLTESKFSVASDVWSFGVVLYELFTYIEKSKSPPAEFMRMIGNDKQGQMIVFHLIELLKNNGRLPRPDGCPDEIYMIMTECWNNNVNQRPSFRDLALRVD

Row | Structure (SMILES) | Ki [1] [nM] | Ki [2] [nM] | IC50 ([3]; Homo sapiens, BEAS-2B) [nM] | IC50 [3] [nM]
1 | CN(C)C(=O)Cn1cc(NC(=O)c2cnn3cccnc23)c(-c2cc(C3CC3)ccc2OC(F)F)n1 [Example 14, N-(3-(5-cyclopropyl-2-(difluoromethoxy)phenyl)-1-(2-(dimethylamino)-2-oxoethyl)-1H-pyrazol-4-yl)pyrazolo[1,5-a]pyrimidine-3-carboxamide] | 0.8 | 1.99 | 47.3 | –
2 | CN(C)C(=O)Cn1cc(NC(=O)c2cnn3cccnc23)c(-c2cc(Oc3ccc4c(c3)CNCC4)ccc2OC(F)F)n1 [Example 12, N-(3-(2-(difluoromethoxy)-5-((1,2,3,4-tetrahydroisoquinolin-7-yl)oxy)phenyl)-1-(2-(dimethylamino)-2-oxoethyl)-1H-pyrazol-4-yl)pyrazolo[1,5-a]pyrimidine-3-carboxamide] | 0.27 | 0.75 | 29.8 | –
3 | C=Cc1ccc(OC(F)F)c(-c2nn(CC(=O)N(C)C)cc2NC(=O)c2cnn3cccnc23)c1 [Example 13, N-(3-(2-(difluoromethoxy)-5-vinylphenyl)-1-(2-(dimethylamino)-2-oxoethyl)-1H-pyrazol-4-yl)pyrazolo[1,5-a]pyrimidine-3-carboxamide] | 0.51 | 1.17 | 24.1 | –
4 | CN1CC(O)(c2cccc(Oc3ccc(OC(F)F)c(-c4nn(CC(=O)N(C)C)cc4NC(=O)c4cnn5cccnc45)c3)c2)C1 [Example 18, N-(3-(2-(difluoromethoxy)-5-(3-(3-hydroxy-1-methylazetidin-3-yl)phenoxy)phenyl)-1-(2-(dimethylamino)-2-oxoethyl)-1H-pyrazol-4-yl)pyrazolo[1,5-a]pyrimidine-3-carboxamide] | 3.18 | 1.56 | 285 | –
5 | CC(C(=O)N(C)C)n1cc(NC(=O)c2cnn3cccnc23)c(-c2cc(Cl)ccc2OC(F)F)n1 (single isomer, unassigned) [Example 10] | 0.41 | 0.83 | – | 16.6
6 | CN(C)C(=O)Cn1cc(NC(=O)c2c(N)nn3cccnc23)c(-c2cc(Cl)ccc2OC(F)F)n1 [Example 3, 2-amino-N-(3-(5-chloro-2-(difluoromethoxy)phenyl)-1-(2-(dimethylamino)-2-oxoethyl)-1H-pyrazol-4-yl)pyrazolo[1,5-a]pyrimidine-3-carboxamide] | 0.34 | 0.77 | 10.3 | –
7 | CC(C(=O)N(C)C)n1cc(NC(=O)c2cnn3cccnc23)c(-c2cc(Cl)ccc2OC(F)F)n1 (single isomer, unassigned) [Example 11] | 0.58 | 1.26 | – | 41.8
8 | CN(C)C(=O)Cn1cc(NC(=O)c2cnn3cccnc23)c(-c2cc(Oc3ccc(C(=O)N(C)C)cc3)ccc2OC(F)F)n1 [Example 8, N-(3-(2-(difluoromethoxy)-5-(4-(dimethylcarbamoyl)phenoxy)phenyl)-1-(2-(dimethylamino)-2-oxoethyl)-1H-pyrazol-4-yl)pyrazolo[1,5-a]pyrimidine-3-carboxamide] | 0.83 | 1.81 | 43.9 | –
9 | CN(C)C(=O)Cn1cc(NC(=O)c2cnn3cccnc23)c(-c2cc(Cl)ccc2OC(F)F)n1 [Example 16, N-(3-(5-chloro-2-(difluoromethoxy)phenyl)-1-(2-(dimethylamino)-2-oxoethyl)-1H-pyrazol-4-yl)pyrazolo[1,5-a]pyrimidine-3-carboxamide] | 0.65 | 1.02 | 33.4 | –
10 | CN(C)C(=O)Cn1cc(NC(=O)c2cnn3cccnc23)c(-c2cc(I)ccc2OC(F)F)n1 [Example 2, N-[3-[2-(difluoromethoxy)-5-iodophenyl]-1-[(dimethylcarbamoyl)methyl]-1H-pyrazol-4-yl]pyrazolo[1,5-a]pyrimidine-3-carboxamide] | 0.25 | 0.17 | 6 | –
11 | CN(C)C(=O)Cn1cc(NC(=O)c2cnn3cccnc23)c(-c2cc([C@@H]3C[C@H]3C#N)ccc2OC(F)F)n1 [Example 1, N-(3-(5-((1R,2R)-2-cyanocyclopropyl)-2-(difluoromethoxy)phenyl)-1-(2-(dimethylamino)-2-oxoethyl)-1H-pyrazol-4-yl)pyrazolo[1,5-a]pyrimidine-3-carboxamide] | 0.25 | 0.61 | 9.9 | –
12 | CN(C)C(=O)Cn1cc(NC(=O)c2cnn3cccnc23)c(-c2cc(CCF)ccc2OC(F)F)n1 [Example 9, N-(3-(2-(difluoromethoxy)-5-(2-fluoroethyl)phenyl)-1-(2-(dimethylamino)-2-oxoethyl)-1H-pyrazol-4-yl)pyrazolo[1,5-a]pyrimidine-3-carboxamide] | 0.97 | 1.92 | 269 | –

The next lines start with results.

Row | Ki [1] [nM] | Ki [2] [nM] | Structure (SMILES) | IC50 ([3]; Homo sapiens, BEAS-2B) [nM] | IC50 [3] [nM]
13 | 0.15 | 0.25 | CN(C)C(=O)Cn1cc(NC(=O)c2cnn3cccnc23)c(-c2cc(C(F)F)ccc2OC(F)F)n1 [Example 6, N-(3-(2-(difluoromethoxy)-5-(difluoromethyl)phenyl)-1-(2(dimethylamino)-2-oxoethyl)-1H-pyrazol-4-yl)pyrazolo[1,5-a]pyrimidine-3-carboxamide] | 9.9 | –
14 | 5.84 | 3.26 | CN(C)C(=O)Cn1cc(NC(=O)c2cnn3cccnc23)c(-c2cc(C(F)CF)ccc2OC(F)F)n1 (single isomer, unassigned) [Example 4] | – | 83.8
15 | 0.26 | 0.72 | CN(C)C(=O)Cn1cc(NC(=O)c2cnn3cccnc23)c(-c2cc(OC(F)F)ccc2OC(F)F)n1 [Example 17, N-(3-(2,5-bis(difluoromethoxy)phenyl)-1-(2-(dimethylamino)-2-oxoethyl)-1H-pyrazol-4-yl)pyrazolo[1,5-a]pyrimidine-3-carboxamide] | 14.1 | –
16 | 0.17 | 0.38 | CN(C)C(=O)Cn1cc(NC(=O)c2cnn3cccnc23)c(-c2cc(C(F)CF)ccc2OC(F)F)n1 (single isomer, unassigned) [Example 5] | – | 6.7
17 | 0.32 | 0.43 | CN(C)C(=O)Cn1cc(NC(=O)c2cnn3cccnc23)c(-c2cc(Br)ccc2OC(F)F)n1 [Example 15, N-(3-(5-bromo-2-(difluoromethoxy)phenyl)-1-(2-(dimethylamino)-2-oxoethyl)-1H-pyrazol-4-yl)pyrazolo[1,5-a]pyrimidine-3-carboxamide] | 14.3 | –
18 | 0.52 | 1.15 | CN(C)C(=O)Cn1cc(NC(=O)c2cnn3cccnc23)c(-c2cc(CC(F)F)ccc2OC(F)F)n1 [Example 7, N-(3-(5-(2,2-difluoroethyl)-2-(difluoromethoxy)phenyl)-1-(2-(dimethylamino)-2-oxoethyl)-1H-pyrazol-4-yl)pyrazolo[1,5-a]pyrimidine-3-carboxamide] | 28.9 | –
